Read-outs that look alike come from different tables or passages of the source.

This experiment deals with ATM (Homo sapiens (Human), UniProt Q13315). In words: biochemical. The experiment is classed as biochemical. An excerpt: Assay a): ATM Biochemical Potency
Data was collected by Caliper.

Chain of ATM (Q13315 whole entry, looked up): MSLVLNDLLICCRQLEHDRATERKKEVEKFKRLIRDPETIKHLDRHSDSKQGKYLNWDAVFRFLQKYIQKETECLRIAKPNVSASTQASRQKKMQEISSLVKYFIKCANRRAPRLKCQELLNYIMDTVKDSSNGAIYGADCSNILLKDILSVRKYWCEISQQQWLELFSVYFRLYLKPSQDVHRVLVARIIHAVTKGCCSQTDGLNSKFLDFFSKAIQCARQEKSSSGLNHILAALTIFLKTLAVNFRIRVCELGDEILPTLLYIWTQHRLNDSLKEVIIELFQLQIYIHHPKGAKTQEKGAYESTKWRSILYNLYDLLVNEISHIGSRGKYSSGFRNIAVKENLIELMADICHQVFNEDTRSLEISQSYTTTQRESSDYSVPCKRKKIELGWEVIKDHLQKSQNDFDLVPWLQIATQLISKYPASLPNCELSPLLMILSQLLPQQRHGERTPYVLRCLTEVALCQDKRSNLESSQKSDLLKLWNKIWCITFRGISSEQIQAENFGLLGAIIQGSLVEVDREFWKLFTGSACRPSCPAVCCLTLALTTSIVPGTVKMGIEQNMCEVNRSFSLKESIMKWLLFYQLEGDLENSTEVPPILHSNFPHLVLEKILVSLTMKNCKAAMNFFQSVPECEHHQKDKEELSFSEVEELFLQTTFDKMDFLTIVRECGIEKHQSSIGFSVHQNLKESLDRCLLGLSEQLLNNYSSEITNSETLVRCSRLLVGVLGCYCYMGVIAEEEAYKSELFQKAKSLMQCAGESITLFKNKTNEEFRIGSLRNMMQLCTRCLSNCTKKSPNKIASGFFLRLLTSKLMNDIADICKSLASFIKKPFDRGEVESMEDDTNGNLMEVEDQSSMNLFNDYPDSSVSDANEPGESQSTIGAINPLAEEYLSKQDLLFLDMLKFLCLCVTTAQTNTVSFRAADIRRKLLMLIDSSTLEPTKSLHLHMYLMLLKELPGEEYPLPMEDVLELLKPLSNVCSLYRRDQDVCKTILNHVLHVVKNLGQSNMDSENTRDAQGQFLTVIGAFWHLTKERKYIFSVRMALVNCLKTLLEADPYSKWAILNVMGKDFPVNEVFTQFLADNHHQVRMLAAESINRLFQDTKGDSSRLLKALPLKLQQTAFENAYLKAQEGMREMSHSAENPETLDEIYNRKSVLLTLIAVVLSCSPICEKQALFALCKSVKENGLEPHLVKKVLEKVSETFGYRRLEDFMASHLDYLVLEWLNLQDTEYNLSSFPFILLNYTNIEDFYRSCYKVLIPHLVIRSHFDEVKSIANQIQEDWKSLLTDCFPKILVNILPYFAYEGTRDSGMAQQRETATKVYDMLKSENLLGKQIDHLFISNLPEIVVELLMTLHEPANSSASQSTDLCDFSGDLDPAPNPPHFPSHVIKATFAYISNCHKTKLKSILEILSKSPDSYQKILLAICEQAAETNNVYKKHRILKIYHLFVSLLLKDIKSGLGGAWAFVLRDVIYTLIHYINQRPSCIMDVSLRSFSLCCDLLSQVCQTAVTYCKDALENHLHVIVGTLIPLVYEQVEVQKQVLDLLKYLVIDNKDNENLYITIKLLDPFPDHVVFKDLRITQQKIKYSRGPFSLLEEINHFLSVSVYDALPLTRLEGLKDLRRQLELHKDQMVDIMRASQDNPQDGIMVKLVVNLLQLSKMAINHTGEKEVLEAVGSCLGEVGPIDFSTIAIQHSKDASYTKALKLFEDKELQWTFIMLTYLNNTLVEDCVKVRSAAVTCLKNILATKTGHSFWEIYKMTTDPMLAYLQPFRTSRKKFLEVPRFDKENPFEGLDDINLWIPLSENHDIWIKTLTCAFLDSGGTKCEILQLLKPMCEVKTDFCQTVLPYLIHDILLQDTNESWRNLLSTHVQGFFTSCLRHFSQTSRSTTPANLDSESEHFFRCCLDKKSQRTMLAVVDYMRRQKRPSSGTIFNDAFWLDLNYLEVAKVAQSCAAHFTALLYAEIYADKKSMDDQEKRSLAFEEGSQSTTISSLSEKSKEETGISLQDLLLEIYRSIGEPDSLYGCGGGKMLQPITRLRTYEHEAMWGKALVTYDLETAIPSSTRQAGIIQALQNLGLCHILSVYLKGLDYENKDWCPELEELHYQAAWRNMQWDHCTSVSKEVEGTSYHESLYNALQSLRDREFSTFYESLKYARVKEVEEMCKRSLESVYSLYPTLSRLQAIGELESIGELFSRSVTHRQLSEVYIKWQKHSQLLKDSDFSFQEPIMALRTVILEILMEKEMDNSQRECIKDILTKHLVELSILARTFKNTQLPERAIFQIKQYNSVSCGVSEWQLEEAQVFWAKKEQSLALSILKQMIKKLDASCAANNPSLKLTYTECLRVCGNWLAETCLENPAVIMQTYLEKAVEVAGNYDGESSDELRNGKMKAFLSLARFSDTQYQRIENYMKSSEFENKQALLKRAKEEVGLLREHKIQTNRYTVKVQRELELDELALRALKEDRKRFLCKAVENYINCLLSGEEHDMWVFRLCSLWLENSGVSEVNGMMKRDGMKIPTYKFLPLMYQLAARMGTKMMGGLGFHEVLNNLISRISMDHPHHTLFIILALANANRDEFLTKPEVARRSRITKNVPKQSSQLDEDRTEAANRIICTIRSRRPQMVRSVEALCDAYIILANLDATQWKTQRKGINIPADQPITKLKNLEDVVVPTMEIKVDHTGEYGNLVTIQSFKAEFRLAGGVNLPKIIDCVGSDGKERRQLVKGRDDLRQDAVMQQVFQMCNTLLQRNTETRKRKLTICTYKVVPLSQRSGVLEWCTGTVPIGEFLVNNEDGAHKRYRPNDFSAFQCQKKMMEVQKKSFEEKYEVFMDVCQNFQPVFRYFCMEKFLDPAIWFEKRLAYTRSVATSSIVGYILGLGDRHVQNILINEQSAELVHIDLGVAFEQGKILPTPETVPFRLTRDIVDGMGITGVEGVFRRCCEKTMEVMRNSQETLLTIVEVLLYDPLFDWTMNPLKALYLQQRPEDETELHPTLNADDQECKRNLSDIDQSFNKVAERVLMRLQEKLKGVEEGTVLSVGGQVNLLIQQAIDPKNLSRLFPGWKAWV

As usually defined, the IC50 is the concentration needed to halve the response being measured. In turn, `Cn1c(=O)n(C2CCOCC2)c2c3cc(-c4ccc(COCCN5CCC6(CC6)C5)nc4)ccc3nnc21` [Example 94, 8-(6-((2-(5-azaspiro[2.4]heptan-5-yl)ethoxy)methyl)pyridin-3-yl)-3-methyl-1-(tetrahydro-2H-pyran-4-yl)-1H-imidazo[4,5-c]cinnolin-2(3H)-one] came in with an IC50 of 0.024 µM.

On to `Cn1c(=O)n(C2CCOCC2)c2c3cc(-c4ccc(COCCN5CCC(F)CC5)nc4)ccc3nnc21` [Example 95, 8-(6-((2-(4-fluoropiperidin-1-yl)ethoxy)methyl)pyridin-3-yl)-3-methyl-1-(tetrahydro-2H-pyran-4-yl)-1H-imidazo[4,5-c]cinnolin-2(3H)-one], for which the IC50 (read-out: ATM IC50) worked out at 0.047 µM.

Turning to `Cn1c(=O)n(C2CCOCC2)c2c3cc(-c4ccc(COCCN5CCC(C)(C)CC5)nc4)ccc3nnc21` [Example 96, 8-(6-((2-(4,4-dimethylpiperidin-1-yl)ethoxy)methyl)pyridin-3-yl)-3-methyl-1-(tetrahydro-2H-pyran-4-yl)-1H-imidazo[4,5-c]cinnolin-2(3H)-one], the IC50 (read-out: ATM IC50) is 0.017 µM.

Consider `Cn1c(=O)n(C2CCOCC2)c2c3cc(-c4ccc(COCCN5CC6CC6C5)nc4)ccc3nnc21` (centres unmarked) [Example 98, 8-(6-((2-(3-azabicyclo[3.1.0]hexan-3-yl)ethoxy)methyl)pyridin-3-yl)-3-methyl-1-(tetrahydro-2H-pyran-4-yl)-1H-imidazo[4,5-c]cinnolin-2(3H)-one], for which the IC50 (read-out: ATM IC50) was 0.062 µM.

For the compound `Cn1c(=O)n(C2CCOCC2)c2c3cc(-c4ccc(COCCN5CC[C@@H](OC(F)F)C5)nc4)ccc3nnc21` [Example 99, (R)-8-(6-((2-(3-(difluoromethoxy)pyrrolidin-1-yl)ethoxy)methyl)pyridin-3-yl)-3-methyl-1-(tetrahydro-2H-pyran-4-yl)-1H-imidazo[4,5-c]cinnolin-2(3H)-one], the IC50 (read-out: ATM IC50) stood at 0.04 µM.

For `Cn1c(=O)n(C2CCOCC2)c2c3cc(-c4ccc(COCCN5CC[C@H](OC(F)F)C5)nc4)ccc3nnc21` [Example 100, (S)-8-(6-((2-(3-(difluoromethoxy)pyrrolidin-1-yl)ethoxy)methyl)pyridin-3-yl)-3-methyl-1-(tetrahydro-2H-pyran-4-yl)-1H-imidazo[4,5-c]cinnolin-2(3H)-one], for the setting “read-out: ATM IC50”, the IC50 was found to be 0.016 µM.

With `Cn1c(=O)n(C2CCOCC2)c2c3cc(-c4ccc(COCCN5CCC(OC(F)(F)F)CC5)nc4)ccc3nnc21` [Example 101, 3-methyl-1-(tetrahydro-2H-pyran-4-yl)-8-(6-((2-(4-(trifluoromethoxy)piperidin-1-yl)ethoxy)methyl)pyridin-3-yl)-1H-imidazo[4,5-c]cinnolin-2(3H)-one], for the setting “read-out: ATM IC50”, the IC50 stood at 0.0037 µM.

With `C[C@@H](OCCN1CC2CC2C1)c1ccc(-c2ccc3nnc4c(c3c2)n(C2CCOCC2)c(=O)n4C)cn1` (stereo partly drawn) [Example 104, 8-(6-((1R)-1-(2-(3-azabicyclo[3.1.0]hexan-3-yl)ethoxy)ethyl)pyridin-3-yl)-3-methyl-1-(tetrahydro-2H-pyran-4-yl)-1H-imidazo[4,5-c]cinnolin-2(3H)-one], under “read-out: ATM IC50”, the IC50 is 0.019 µM.

In the case of `C[C@@H](OCCN1CCC(F)CC1)c1ccc(-c2ccc3nnc4c(c3c2)n(C2CCOCC2)c(=O)n4C)cn1` [Example 108], under “read-out: ATM IC50”, the IC50 was 0.0037 µM.

In the case of `C[C@@H](OCCN1CCC(OC(F)(F)F)CC1)c1ccc(-c2ccc3nnc4c(c3c2)n(C2CCOCC2)c(=O)n4C)cn1` [Example 109, (R)-3-methyl-1-(tetrahydro-2H-pyran-4-yl)-8-(6-(1-(2-(4-(trifluoromethoxy)piperidin-1-yl)ethoxy)ethyl)pyridin-3-yl)-1H-imidazo[4,5-c]cinnolin-2(3H)-one], under “read-out: ATM IC50”, the IC50 worked out at 0.0021 µM.

Take `C[C@@H](OCCN1CCC(C)(C)C1)c1ccc(-c2ccc3nnc4c(c3c2)n(C2CCOCC2)c(=O)n4C)cn1` [Example 111, (R)-8-(6-(1-(2-(3,3-dimethylpyrrolidin-1-yl)ethoxy)ethyl)pyridin-3-yl)-3-methyl-1-(tetrahydro-2H-pyran-4-yl)-1H-imidazo[4,5-c]cinnolin-2(3H)-one]: for the setting “read-out: ATM IC50”, the IC50 is 0.012 µM.
